Columns and labels:
Cricetinae gen. sp. [1] = assay: In vivo inhibition in HLE-induced hamster lung hemorrhage when given orally at 10 mg/kg, 2 hr before challenge by HLE; format: functional; details: route oral
[2] = target: T1, Neutrophil elastase (Homo sapiens) (UniProt P08246); assay: (§1) In vitro inhibition of Human Leukocyte Elastase enzyme in whole blood stimulated with A-23187 (at dose 3 uM); format: functional, tissue-based
T1 sequence (whole entry): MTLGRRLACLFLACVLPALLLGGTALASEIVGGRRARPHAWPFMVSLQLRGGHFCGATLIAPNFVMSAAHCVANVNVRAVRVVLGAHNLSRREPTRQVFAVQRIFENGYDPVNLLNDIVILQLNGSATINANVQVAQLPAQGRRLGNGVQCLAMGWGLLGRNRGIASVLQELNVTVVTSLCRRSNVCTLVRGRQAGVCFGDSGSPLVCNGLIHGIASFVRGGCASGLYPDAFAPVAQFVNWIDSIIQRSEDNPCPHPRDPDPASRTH

[3] = target: T1, Neutrophil elastase (Homo sapiens); assay: Compound was tested for inhibition of Human Leukocyte Elastase enzyme, expressed in term of bimolecular rate constant (Kinact/Ki)
Neutrophil elastase = target: T2, Neutrophil elastase (Homo sapiens, UniProt P08246); assay: as §1; format: functional, tissue-based
T2 sequence (P08246 whole entry): T1 sequence (whole entry)

Cricetinae gen. sp. [4] = assay: Effective dose required to in vivo inhibition in HLE-induced hamster lung hemorrhage when given orally 5 hr before the enzyme; format: functional; details: po

Row | inhibition [2] [%] | Ratio [3] [M⁻¹ s⁻¹] | IC50 (Neutrophil elastase) [µM] | Structure (SMILES) | inhibition in vivo at 10 mg/kg (Cricetinae gen. sp. [1]) [%] | ED50 (Cricetinae gen. sp. [4]) [mg/kg]
1 | 55 | 417000 | – | CCC[C@@H](NC(=O)N1C(=O)C(CC)(CC)[C@@H]1Oc1ccc(CP(C)(=O)O)cc1)c1ccc(C)cc1 | -59 | –
2 | – | 622000 | 9 | CCC[C@@H](NC(=O)N1C(=O)C(CC)(CC)[C@@H]1Oc1ccc(CC(=O)O)cc1)c1ccc(C)cc1 | – | 1.5
3 | 48 | 740000 | – | C=CCP(=O)(O)Cc1ccc(O[C@@H]2N(C(=O)N[C@H](CCC)c3ccc(C)cc3)C(=O)C2(CC)CC)cc1 | 19 | –
4 | 51 | 1.33e+06 | – | C=CCP(=O)(Cc1ccc(O[C@@H]2N(C(=O)N[C@H](CCC)c3ccc(C)cc3)C(=O)C2(CC)CC)cc1)OCC (stereo not given in full) | 64 | –
5 | 50 | 906000 | – | CCC[C@@H](NC(=O)N1C(=O)C(CC)(CC)[C@@H]1Oc1ccc(CP(=O)(O)CCC)cc1)c1ccc(C)cc1 | 15 | –
6 | 34 | 1.17e+06 | – | CCC[C@@H](NC(=O)N1C(=O)C(CC)(CC)[C@@H]1Oc1ccc(CP(=O)(O)c2ccccc2)cc1)c1ccc(C)cc1 | 27 | –
7 | – | 1.05e+06 | – | CCC[C@@H](NC(=O)N1C(=O)C(CC)(CC)[C@@H]1Oc1ccc(CP(=O)(CCC)OC(OC(=O)CC)C(C)C)cc1)c1ccc(C)cc1 (stereo not given in full) | – | –

Row | Structure (SMILES) | inhibition [2] [%] | Ratio [3] [M⁻¹ s⁻¹] | IC50 (Neutrophil elastase) [µM] | inhibition in vivo at 10 mg/kg (Cricetinae gen. sp. [1]) [%] | ED50 (Cricetinae gen. sp. [4]) [mg/kg]
8 | CCC[C@@H](NC(=O)N1C(=O)C(CC)(CC)[C@@H]1Oc1ccc(CP(=O)(O)O)cc1)c1ccc(C)cc1 | 61 | 217000 | – | 17 | –
9 | CCC[C@@H](NC(=O)N1C(=O)C(CC)(CC)[C@@H]1Oc1ccc(CP(=O)(OCC)OCC)cc1)c1ccc(C)cc1 | 63 | 1.16e+06 | – | 15 | –
